Assay results published in patent US20230000808A1, “COMPOSITIONS AND METHODS EXCLUDING OR WITH REDUCED GLUTAMINE FOR THE TREATMENT OF HEMOGLOBINOPATHIES AND THALASSEMIAS” (AXCELLA HEALTH INC., priority 2019, published 2023).

What was measured:
[1] = tested on: RBCs of healthy whole blood; assay: RBC deformability (Elongation Index, LORRCA ektacytometry), ex vivo TBHP oxidation of healthy whole blood; assay type: cell-based, human; details: healthy donor 2, single amino acid treatments
Excerpt: Whole blood from healthy African American and/or Hispanic donors was obtained from Research Blood Components, LLC based on the following donor selection criteria: Adult age (between 18 and 50 years), normal BMI (<30), and absence of other confounding clinical conditions. Whole blood from SCD donors were obtained from BioIVT based on the following donor selection criteria: Patients with genotypes HbSS, HbSC, HbS/β^0 and at least 1-2 months gap since last blood transfusion. Whole blood was shipped on ice on the same day as blood draw. Upon receipt, the blood sample was aliquoted and stored in the refrigerator until used for studies.
RBC deformability measurements were conducted with the Laser Optical Rotational Red Cell Analyzer (LORRCA) from RR Mechatronics in a temperature-controlled environment (37° C.). Briefly, an even layer of RBCs suspended in polyvinylpyrrolidone (PVP) is subjected to shear stress gradient (0.3 to 30 Pa) through two concentric cylinders and the resulting changes in RBC shape or deformability are measured by a laser beam diffraction pattern. The captured images of RBC shape in response to increasing shear stress are then analyzed by the LORRCA program to calculate Elongation Index (EI).
Healthy RBCs have higher deformability ≥0.5 EI and SCD RBCs have lower deformability or EI values as studied by LORRCA ektacytometry in the field. […] The induced hemolysis model in this disclosure involves use of tert-butyl hydroperoxide (TBHP) to lower EI of RBCs.
The ex vivo hemolysis study disclosed here involves overnight treatment of whole blood with vehicle as a control and specific amino acids followed by rapid oxidation (5 min) with TBHP. Method for oxidation of whole blood with tert-butyl hydroperoxide has been used in prior literature (Diederich L, et al, Front Physiol. 2018 May 11; 9:332). RBC deformability or shape changes are then measured with LORRCA ektacytometry.
Whole blood aliquots stored in the fridge were brought up to room temperature while gently shaking on a rocker at low speed for an hour to ensure gradual and uniform suspension of red blood cells prior to deformability measurements. Vehicle control used in the study was 1× Dulbecco's […]) and amino acids disclosed herein were added (at either final 10× or 2.5 mM concentration as indicated) to corresponding vehicle and amino acid treatment conditions. The samples were then incubated overnight at 37° C. The next day, 25 μl of whole blood was taken from each treatment condition and added to 5 mL Elon ISO viscous solution from RR Mechatronics. The sample was inverted 15-20 times to ensure proper mixing of the treated RBCs with the Elon ISO solution followed by loading the sample on LORRCA and capturing RBC deformability or shape measurements over the applied shear gradient. The remaining whole blood treatments were returned to incubator (37° C.) until deformability measurements were completed for all treatments. To the remaining whole blood treatment samples, TBHP solution (5.0-6.0 M in Decane, Sigma) was added at 2.5 mM final concentration from a 100 mM freshly prepared stock and incubated for further 5 min at 37° C. 25 μl of this TBHP-treated sample was immediately removed at the end of the 5 min incubation and added to the Elon ISO solution for RBC deformability measurement after oxidation. Included in the Tables 13-15 are EI measurements at ½ EImax shear stress 1.69 Pa and EImax shear stress 30 Pa from these studies and FIG. 1 captures EI measurements for all shear stress points for the indicated treatment conditions.

IL-6 = assay: Secreted IL-6 in HLMVEC treated with TNF-α (FirePlex); assay type: cell-based, human; details: HLMVEC + 0.5 ng/mL TNF-α, 24 h; amino acids 20x HMDB, Nac/Cit/Car 5 mM as bracketed
Procedure: (§1) Primary Human Lung Microvascular Endothelial Cells (HLMVEC; Lonza) were seeded at 6,000 cells per well in Endothelial Cell Growth Basal Medium-2 (Lonza) supplemented with Fetal Bovine Serum (FBS; Lonza), human EGF (Lonza), human VEGF (Lonza), R3-Insulin-like Growth Factor-1 (Lonza), ascorbic acid (Lonza), hydrocortisone (Lonza), human FGF-beta (Lonza), and gentamicin/amphotericin-b (Lonza) in a 96-well plate (Thermo Fisher). The cells were incubated for 45 minutes at room temperature, then incubated overnight at 37° C./5% CO2.
(§2) Following overnight incubation, cell were washed once with 150 μL of Dulbecco's phosphate buffered saline (DPBS; Gibco), and then treated with Endothelial Basal Medium MCB-131 (amino acid, glucose, sodium pyruvate, and phenol red free; US Biologicals) containing a defined custom amino acid concentration based on physiological concentrations in blood of patients with SCD (thus recapitulating observed metabolic imbalances such as the depletion of certain essential amino acids including arginine and aspartate and enrichment of certain non-essential amino acids including glutamate and asparagine), dialyzed FBS (Hyclone), human EGF (Lonza), human VEGF (Lonza), R3-Insulin-like Growth Factor-1 (Lonza), ascorbic acid (Lonza), hydrocortisone (Lonza), human FGF-beta (Lonza), and gentamicin/amphotericin-b (Lonza), glucose, 10 mM HEPES, sodium pyruvate, and sodium bicarbonate supplemented with one of the following: • a. PBS (vehicle control), • b. 0.5 ng/mL Tumor Necrosis Factor alpha (TNFα) and PBS, or; • c. 0.5 ng/mL TNF-α and amino acid treatments at 20× mean physiological concentrations in plasma based on values published in the Human Metabolome Database (HMDB) in PBS.
Supernatants were analyzed for IL-6 concentrations using a Human Cytokines FirePlex-HT Panel 1 kit (abcam) according to the manufacturer-supplied instructions. Particles were imaged on a high content imager (Molecular Devices), and results were interpolated from a standard curve with FirePlex Analysis Workbench Software (abcam) according manufacturer's recommendations.

ICAM-1 = ICAM-1 cell integrated intensity in HLMVEC treated with TNF-α (immunofluorescence); assay type: cell-based, human; details: HLMVEC + 0.5 ng/mL TNF-α, 24 h; amino acids 20x HMDB, Nac/Cit/Car 5 mM as bracketed
Procedure: as §1, §2
(§3) After 24 hours of treatment, cells were washed once with 150 μL of DPBS (Gibco), then fixed with 4% paraformaldehyde. Following fixation, cells were stained with anti-ICAM-1 [MEM-111] (mouse IgG2a anti-human; abcam) and anti-VCAM1 [1.4C3] (mouse IgG1, K anti-human; abcam) primary antibodies at 1000×, and 100× dilutions respectively. Cells were then stained with Goat anti-Mouse IgG2a Cross-Adsorbed Secondary Antibody, Alexa Fluor 594 (Invitrogen) and Goat anti-Mouse IgG1 Cross-Adsorbed Secondary Antibody, Alexa Fluor 647 (Invitrogen) secondary antibodies. Nuclei were stained with Hoechst 3342 (Life Technologies).
(§4) Antibody binding was detected by fluorescence microscopy using a high content imager (Molecular Devices). Images were analyzed using MetaXpress 6 software to determine the integrated intensity per cell for each wavelength corresponding to ICAM-1 or VCAM-1.

VCAM-1 = VCAM-1 cell integrated intensity in HLMVEC treated with TNF-α (immunofluorescence); assay type: cell-based, human
Procedure: as §1, §2, §3, §4

HLMVEC = assay: META-rank score, composite of VCAM1, ICAM1 and IL6 in the HLMVEC model; assay type: cell-based, human; details: HLMVEC + TNF-α; lower score = more optimal; 20x HMDB / 5 mM
Procedure: The ability of single amino acids and combinations to simultaneously impact these phenotypes was measured by a META-rank score (Tables 17 and 18). META-rank score is a composite measure that considers the optimal impact on all 3 phenotypes (e.g. decrease VCAM1, ICAM1, and IL6) in the HLMVEC model.

[2] = Pharmacokinetics following oral dose administration to male Sprague-Dawley rats (plasma amino acids, LC-MS); details: analyte after oral gavage of RCitNacQCarLHKVS
Procedure: A pharmacokinetic (PK) analysis was performed on plasma concentrations of various combinations of amino acid compounds administered by oral gavage to male Sprague-Dawley rats. Four animals were dosed with RCitNacQCarLHKVS, a test article comprising ten amino acid components: arginine, citrulline, N-acetylcysteine (Nac), glutamine, carnitine, leucine, histidine, lysine, valine, and serine (Table 19). Animals were fasted for 2 hours prior to dose administration. Plasma samples were taken immediately pre-dose and 0.5, 1, 2, 3, 4, and 5 hours post-dose.
Bioanalysis of collected plasma samples for amino acid content was performed at Axcella Health using an LC-MS method (Section 2.1). Bioanalytical data were analyzed using noncompartmental analysis with PHOENIX® WINNONLIN® (v8.1).
An LC/MS method utilizing HILIC chromatography and high-resolution mass spectrometry was used to quantify amino acids in rat plasma. […]
PK parameters of test article components were determined from individual rat plasma concentration-time data by employing a noncompartmental approach using Phoenix WINNONLIN® (Version 8.1) software. […] This program analyzed data using the standard methods described by Gibaldi and Perrier (see M. Gibaldi and D. Perrier, Pharmacokinetics, 2nd edition, New York: Marcel-Dekker, Inc.; 1982.).

Which “EI over vehicle control, both ½ EImax and EImax” value [1] does the source give for `C[N+](C)(C)CC(O)CC(=O)[O-]` (centres unmarked) [Car, carnitine] here?
The value was “higher than the vehicle”.

What about the “Secreted IL6 Median” value (IL-6) of the same molecule?
Its value is −0.022.

What about the “ICAM-1 Cell Integrated Intensity Median” value (ICAM-1) of the same molecule?
Its value is −0.013.

What about the “VCAM-1 expression in HLMVEC” value (VCAM-1; 0.5 ng/mL TNF-α, amino acids at 20× HMDB, 24 hours) of the same molecule?
The value was “moderate effect”.

And the “VCAM-1 Cell Integrated Intensity Median” value (VCAM-1; HLMVEC + 0.5 ng/mL TNF-α, 24 h, amino acids 20x HMDB, Nac/Cit/Car 5 mM as bracketed)?
Its value is −0.017.

What about the “Meta-Rank (Table 18)” value (HLMVEC) of the same molecule?
Its value is 12.5.

What about the “Metarank (Table 17)” value (HLMVEC) of the same molecule?
Its value is 24.

What about the “plasma concentration over the five-hour time course” value [2] of the same molecule?
The value was “continuously increased”.
